According to ChEMBL document CHEMBL5653628, “Selective JAK3 Inhibitors with a Covalent Reversible Binding Mode Targeting a New Induced Fit Binding Pocket” (Cell Chem Biol, 2016):
One block for each compound: values may come before it. The source made the active and inactive calls. The calls are words filed in the database; no cut-off is given here.

What was measured:
[1] = molecular target: Glycogen synthase kinase-3 beta (Homo sapiens, UniProt P49841); assay: Inhibition of GSK3beta (unknown origin)
Protein kinase C (PKC) = assay: Inhibition of PKC (unknown origin); format: protein assay, Homo sapiens
[2] = molecular target: T1, Tyrosine-protein kinase JAK3 (Homo sapiens, UniProt P52333)
T1 sequence (P52333 whole entry): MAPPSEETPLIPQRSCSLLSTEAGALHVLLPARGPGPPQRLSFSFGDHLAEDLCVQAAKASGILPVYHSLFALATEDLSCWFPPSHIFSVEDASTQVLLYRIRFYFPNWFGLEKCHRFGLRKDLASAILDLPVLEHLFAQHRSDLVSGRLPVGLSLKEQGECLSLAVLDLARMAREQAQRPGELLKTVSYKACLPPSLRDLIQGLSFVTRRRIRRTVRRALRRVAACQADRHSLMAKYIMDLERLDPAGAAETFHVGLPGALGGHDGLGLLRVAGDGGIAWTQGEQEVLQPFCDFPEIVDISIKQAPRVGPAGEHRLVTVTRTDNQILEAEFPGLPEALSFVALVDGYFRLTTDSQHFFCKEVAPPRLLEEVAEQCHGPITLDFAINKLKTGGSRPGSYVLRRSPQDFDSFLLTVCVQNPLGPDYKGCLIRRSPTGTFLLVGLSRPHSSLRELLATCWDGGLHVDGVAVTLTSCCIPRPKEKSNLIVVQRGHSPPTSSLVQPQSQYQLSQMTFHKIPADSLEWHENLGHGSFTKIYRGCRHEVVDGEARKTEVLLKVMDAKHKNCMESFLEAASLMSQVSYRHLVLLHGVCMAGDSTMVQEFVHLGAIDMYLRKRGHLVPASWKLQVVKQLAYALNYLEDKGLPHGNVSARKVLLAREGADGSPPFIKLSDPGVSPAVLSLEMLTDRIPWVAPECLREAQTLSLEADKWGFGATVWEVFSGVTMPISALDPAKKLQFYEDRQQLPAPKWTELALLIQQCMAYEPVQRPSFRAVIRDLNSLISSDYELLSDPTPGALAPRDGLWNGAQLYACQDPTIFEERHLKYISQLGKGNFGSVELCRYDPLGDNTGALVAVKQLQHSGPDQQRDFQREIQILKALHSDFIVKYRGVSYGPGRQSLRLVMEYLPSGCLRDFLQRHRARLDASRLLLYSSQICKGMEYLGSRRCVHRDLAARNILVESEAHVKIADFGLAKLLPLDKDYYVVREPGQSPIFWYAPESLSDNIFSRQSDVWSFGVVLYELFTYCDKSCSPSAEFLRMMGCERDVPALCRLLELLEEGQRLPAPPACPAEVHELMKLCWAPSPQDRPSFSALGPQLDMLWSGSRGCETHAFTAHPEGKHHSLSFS
Description: Inhibition of JAK3 (unknown origin) in presence of ATP by radiometric assay

[3] = molecular target: Tyrosine-protein kinase BTK (Homo sapiens, UniProt Q06187); assay: Inhibition of BTK (unknown origin) by trFRET binding assay
[4] = molecular target: T1, Tyrosine-protein kinase JAK3; assay: Inhibition of JAK3 (unknown origin) by trFRET binding assay
[5] = molecular target: G protein-coupled receptor kinase 5 (Homo sapiens, UniProt P34947); assay: Inhibition of GRK5 (unknown origin) by trFRET binding assay
[6] = molecular target: Proto-oncogene tyrosine-protein kinase receptor Ret (Homo sapiens, UniProt P07949); assay: Inhibition of RET (unknown origin) by trFRET binding assay
[7] = molecular target: Mitogen-activated protein kinase kinase kinase kinase 2 (Homo sapiens, UniProt Q12851); assay: Inhibition of MAP4K2 (unknown origin) by trFRET binding assay
[8] = molecular target: Leukocyte tyrosine kinase receptor (Homo sapiens, UniProt P29376); assay: Inhibition of LTK (unknown origin) by trFRET binding assay
[9] = molecular target: Fibroblast growth factor receptor 1 (Homo sapiens, UniProt P11362); assay: Inhibition of FGFR1 (unknown origin) by trFRET binding assay
[10] = molecular target: Serine/threonine-protein kinase 33 (Homo sapiens, UniProt Q9BYT3); assay: Inhibition of STK33 (unknown origin) by trFRET binding assay
Homo sapiens = species on record: Homo sapiens; assay: Inhibition of AMPK (unknown origin) at 1 uM relative to control
cells [11] = settings: Homo sapiens, CD4+ve Th, 1.5 h, read-out: INH
[12] = molecular target: T2, Tyrosine-protein kinase Fyn (Homo sapiens, UniProt P06241); assay: Inhibition of FYN (unknown origin) by trFRET binding assay
[13] = molecular target: STE20/SPS1-related proline-alanine-rich protein kinase (Homo sapiens) (UniProt Q9UEW8); settings: dose 500.0 nM
Description: Inhibition of STK39 (unknown origin) at 500 nM relative to control

[14] = molecular target: T3, Tyrosine-protein kinase JAK3 (Homo sapiens) (UniProt P52333); settings: HeLa, dose 100.0 nM, time 1.0 hrs
T3 sequence (whole entry): T1 sequence (P52333 whole entry)

cells [15] = settings: Homo sapiens, CD4+ve Th, 1.5 h, read-out: INH; remark: listed apart in the source
[16] = molecular target: Dual specificity protein kinase CLK3 (Homo sapiens) (UniProt P49761); settings: dose 500.0 nM
Description: Inhibition of CLK3 (unknown origin) at 500 nM relative to control

[17] = system: NPM/ALK (Nucleophosmin/ALK tyrosine kinase receptor) (Homo sapiens), Q9UM73+P06748 [F1174L]; settings: dose 500.0 nM
Description: Inhibition of NPM1ALK F1174L mutant (unknown origin) at 500 nM relative to control

[18] = molecular target: Serine/threonine-protein kinase Nek6 (Homo sapiens) (UniProt Q9HC98); settings: dose 500.0 nM
Description: Inhibition of NEK6 (unknown origin) at 500 nM relative to control

[19] = system: Mast/stem cell growth factor receptor Kit (Homo sapiens), P10721 [V559D,V654A]; settings: dose 500.0 nM
[20] = molecular target: Tyrosine-protein kinase CSK (Homo sapiens) (UniProt P41240); settings: dose 500.0 nM
Description: Inhibition of CSK (unknown origin) at 500 nM relative to control

[21] = molecular target: Mitogen-activated protein kinase kinase kinase kinase 4 (Homo sapiens) (UniProt O95819); settings: dose 500.0 nM
Description: Inhibition of NIK (unknown origin) at 500 nM relative to control

[22] = molecular target: Phosphatidylinositol 3-kinase catalytic subunit type 3 (Homo sapiens) (UniProt Q8NEB9); settings: dose 500.0 nM
Description: Inhibition of PIK3C3 (unknown origin) at 500 nM relative to control

[23] = molecular target: Macrophage-stimulating protein receptor (Homo sapiens) (UniProt Q04912); settings: dose 500.0 nM
Description: Inhibition of RON (unknown origin) at 500 nM relative to control

[24] = molecular target: Serine/threonine-protein kinase haspin (Homo sapiens) (UniProt Q8TF76); settings: dose 500.0 nM
Description: Inhibition of GSG2 (unknown origin) at 500 nM relative to control

[25] = molecular target: T3, Tyrosine-protein kinase JAK3 (Homo sapiens); settings: HeLa, dose 100.0 nM, time 2.0 hrs
CD4+ve Th [26] = settings: Homo sapiens, dose <= 1000.0 nM, time 1.5 hrs
[27] = system: Fibroblast growth factor receptor 3 (Homo sapiens), P22607 [G697C]; settings: dose 500.0 nM
[28] = molecular target: G protein-coupled receptor kinase 6 (Homo sapiens) (UniProt P43250); settings: dose 500.0 nM
Description: Inhibition of GRK6 (unknown origin) at 500 nM relative to control

[29] = molecular target: Serine/threonine-protein kinase D1 (Homo sapiens) (UniProt Q15139); settings: dose 500.0 nM
Description: Inhibition of PKC-mu (unknown origin) at 500 nM relative to control

[30] = molecular target: Phosphatidylinositol 4,5-bisphosphate 3-kinase catalytic subunit gamma isoform (Homo sapiens) (UniProt P48736); settings: dose 500.0 nM
Description: Inhibition of PIK3CG (unknown origin) at 500 nM relative to control

[31] = molecular target: MAP kinase-activated protein kinase 3 (Homo sapiens) (UniProt Q16644); settings: dose 500.0 nM
Description: Inhibition of MAPKAPK3 (unknown origin) at 500 nM relative to control

[32] = molecular target: Hepatocyte growth factor-like protein (Homo sapiens) (UniProt P26927); settings: dose 500.0 nM
Description: Inhibition of MST1 (unknown origin) at 500 nM relative to control

[33] = molecular target: MAP kinase-activated protein kinase 2 (Homo sapiens) (UniProt P49137); settings: dose 500.0 nM
Description: Inhibition of MAPKAPK2 (unknown origin) at 500 nM relative to control

[34] = molecular target: T3, Tyrosine-protein kinase JAK3 (Homo sapiens); settings: dose 500.0 nM
Description: Inhibition of JAK3 (unknown origin) at 500 nM relative to control

[35] = molecular target: Receptor tyrosine-protein kinase erbB-4 (Homo sapiens) (UniProt Q15303); settings: dose 500.0 nM
Description: Inhibition of ERBB4 (unknown origin) at 500 nM relative to control

[36] = molecular target: T2, Tyrosine-protein kinase Fyn; settings: dose 500.0 nM
Description: Inhibition of wild-type FYN (unknown origin) at 500 nM relative to control

CD4+ve Th [37] = settings: Homo sapiens, dose 50-100 nM, time 1.5 hrs
[38] = molecular target: Homeodomain-interacting protein kinase 1 (Homo sapiens) (UniProt Q86Z02); settings: dose 500.0 nM
Description: Inhibition of HIPK1 (unknown origin) at 500 nM relative to control

CD4+ve Th [39] = settings: Homo sapiens, dose <= 1000.0 nM, time 1.5 hrs; remark: listed apart in the source
[40] = molecular target: Mitogen-activated protein kinase 14 (Homo sapiens) (UniProt Q16539); settings: dose 500.0 nM
Description: Inhibition of p38-alpha (unknown origin) at 500 nM relative to control

[41] = molecular target: Vascular endothelial growth factor receptor 2 (Homo sapiens, UniProt P35968); settings: dose 100.0 nM
Description: Inhibition of VEGFR2 (unknown origin) at 100 nM relative to control

[42] = system: Leucine-rich repeat serine/threonine-protein kinase 2 (Homo sapiens), Q5S007 [G2019S]; settings: dose 100.0 nM
[43] = molecular target: Mitogen-activated protein kinase kinase kinase kinase 2 (Homo sapiens) (UniProt Q12851); settings: dose 100.0 nM
Description: Inhibition of MAP4K2 (unknown origin) at 100 nM relative to control

[44] = molecular target: MAP kinase-activated protein kinase 5 (Homo sapiens) (UniProt Q8IW41); settings: dose 100.0 nM
Description: Inhibition of MAPKAPK5 (unknown origin) at 100 nM relative to control

[45] = molecular target: Ribosomal protein S6 kinase alpha-2 (Homo sapiens) (UniProt Q15349); settings: dose 100.0 nM
Description: Inhibition of RPS6KA2 (unknown origin) at 100 nM relative to control

[46] = molecular target: Muscle, skeletal receptor tyrosine-protein kinase (Homo sapiens) (UniProt O15146); settings: dose 100.0 nM
Description: Inhibition of MUSK (unknown origin) at 100 nM relative to control

[47] = molecular target: Serine/threonine-protein kinase N2 (Homo sapiens) (UniProt Q16513); settings: dose 100.0 nM
Description: Inhibition of PRK2 (unknown origin) at 100 nM relative to control

[48] = system: Leucine-rich repeat serine/threonine-protein kinase 2 (Homo sapiens), Q5S007 [I2020T]; settings: dose 100.0 nM
[49] = molecular target: Tyrosine-protein kinase JAK2 (Homo sapiens) (UniProt O60674); settings: dose 100.0 nM
Description: Inhibition of JAK2 (unknown origin) at 100 nM relative to control

[50] = molecular target: T3, Tyrosine-protein kinase JAK3 (Homo sapiens); settings: dose 100.0 nM
Description: Inhibition of JAK3 (unknown origin) at 100 nM relative to control

[51] = molecular target: Tyrosine-protein kinase ITK/TSK (Homo sapiens) (UniProt Q08881); settings: dose 100.0 nM
Description: Inhibition of ITK (unknown origin) at 100 nM relative to control

[52] = molecular target: Protein kinase C beta type (Homo sapiens) (UniProt P05771); settings: dose 100.0 nM
Description: Inhibition of PKC-beta2 (unknown origin) at 100 nM relative to control

[53] = molecular target: Tyrosine-protein kinase Blk (Homo sapiens) (UniProt P51451); settings: dose 100.0 nM
Description: Inhibition of BLK (unknown origin) at 100 nM relative to control

[54] = molecular target: Non-receptor tyrosine-protein kinase TNK1 (Homo sapiens) (UniProt Q13470); settings: dose 100.0 nM
Description: Inhibition of TNK1 (unknown origin) at 100 nM relative to control

[55] = molecular target: Ribosomal protein S6 kinase alpha-6 (Homo sapiens) (UniProt Q9UK32); settings: dose 100.0 nM
Description: Inhibition of RPS6KA6 (unknown origin) at 100 nM relative to control

[56] = molecular target: Rho-associated protein kinase 1 (Homo sapiens) (UniProt Q13464); settings: dose 100.0 nM
Description: Inhibition of ROCK1 (unknown origin) at 100 nM relative to control

[57] = molecular target: Misshapen-like kinase 1 (Homo sapiens) (UniProt Q8N4C8); settings: dose 100.0 nM
Description: Inhibition of MINK1 (unknown origin) at 100 nM relative to control

[58] = molecular target: Protein kinase C delta type (Homo sapiens) (UniProt Q05655); settings: dose 100.0 nM
Description: Inhibition of PKC-delta (unknown origin) at 100 nM relative to control

[59] = system: Leucine-rich repeat serine/threonine-protein kinase 2 (Homo sapiens), Q5S007 [R1441C]; settings: dose 100.0 nM
[60] = molecular target: MAP kinase-activated protein kinase 2 (Homo sapiens) (UniProt P49137); settings: dose 100.0 nM
Description: Inhibition of MAPKAPK2 (unknown origin) at 100 nM relative to control

[61] = molecular target: Mitogen-activated protein kinase kinase kinase 11 (Homo sapiens) (UniProt Q16584); settings: dose 100.0 nM
Description: Inhibition of MAP3K11 (unknown origin) at 100 nM relative to control

[62] = molecular target: Leucine-rich repeat serine/threonine-protein kinase 2 (Homo sapiens) (UniProt Q5S007); settings: dose 100.0 nM
Description: Inhibition of wild-type LRRK2 (unknown origin) at 100 nM relative to control

[63] = system: Epidermal growth factor receptor (Homo sapiens), P00533 [UNDEFINED MUTATION]; settings: dose 100.0 nM
Description: Inhibition of EGFR d747-752/P753S double mutant (unknown origin) at 100 nM relative to control

[64] = system: Epidermal growth factor receptor (Homo sapiens), P00533 [UNDEFINED MUTATION]; settings: dose 500.0 nM
Description: Inhibition of EGFR d747-752/P753S double mutant (unknown origin) at 500 nM relative to control

Sequence of MAP kinase-activated protein kinase 2 (Homo sapiens) (P49137 whole entry, looked up): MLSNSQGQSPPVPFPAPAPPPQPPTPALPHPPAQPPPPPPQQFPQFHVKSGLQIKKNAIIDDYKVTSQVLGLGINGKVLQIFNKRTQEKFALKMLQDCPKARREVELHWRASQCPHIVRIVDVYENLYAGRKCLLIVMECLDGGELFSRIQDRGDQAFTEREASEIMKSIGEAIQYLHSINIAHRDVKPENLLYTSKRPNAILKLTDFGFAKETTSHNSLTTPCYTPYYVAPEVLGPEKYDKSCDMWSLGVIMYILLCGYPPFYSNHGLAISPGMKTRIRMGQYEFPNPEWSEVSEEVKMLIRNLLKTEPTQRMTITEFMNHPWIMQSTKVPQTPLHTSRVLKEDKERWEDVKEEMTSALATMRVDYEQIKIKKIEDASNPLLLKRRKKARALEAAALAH
Sequence of Epidermal growth factor receptor (Homo sapiens), P00533 [UNDEFINED MUTATION] (P00533 whole entry, looked up, change not shown): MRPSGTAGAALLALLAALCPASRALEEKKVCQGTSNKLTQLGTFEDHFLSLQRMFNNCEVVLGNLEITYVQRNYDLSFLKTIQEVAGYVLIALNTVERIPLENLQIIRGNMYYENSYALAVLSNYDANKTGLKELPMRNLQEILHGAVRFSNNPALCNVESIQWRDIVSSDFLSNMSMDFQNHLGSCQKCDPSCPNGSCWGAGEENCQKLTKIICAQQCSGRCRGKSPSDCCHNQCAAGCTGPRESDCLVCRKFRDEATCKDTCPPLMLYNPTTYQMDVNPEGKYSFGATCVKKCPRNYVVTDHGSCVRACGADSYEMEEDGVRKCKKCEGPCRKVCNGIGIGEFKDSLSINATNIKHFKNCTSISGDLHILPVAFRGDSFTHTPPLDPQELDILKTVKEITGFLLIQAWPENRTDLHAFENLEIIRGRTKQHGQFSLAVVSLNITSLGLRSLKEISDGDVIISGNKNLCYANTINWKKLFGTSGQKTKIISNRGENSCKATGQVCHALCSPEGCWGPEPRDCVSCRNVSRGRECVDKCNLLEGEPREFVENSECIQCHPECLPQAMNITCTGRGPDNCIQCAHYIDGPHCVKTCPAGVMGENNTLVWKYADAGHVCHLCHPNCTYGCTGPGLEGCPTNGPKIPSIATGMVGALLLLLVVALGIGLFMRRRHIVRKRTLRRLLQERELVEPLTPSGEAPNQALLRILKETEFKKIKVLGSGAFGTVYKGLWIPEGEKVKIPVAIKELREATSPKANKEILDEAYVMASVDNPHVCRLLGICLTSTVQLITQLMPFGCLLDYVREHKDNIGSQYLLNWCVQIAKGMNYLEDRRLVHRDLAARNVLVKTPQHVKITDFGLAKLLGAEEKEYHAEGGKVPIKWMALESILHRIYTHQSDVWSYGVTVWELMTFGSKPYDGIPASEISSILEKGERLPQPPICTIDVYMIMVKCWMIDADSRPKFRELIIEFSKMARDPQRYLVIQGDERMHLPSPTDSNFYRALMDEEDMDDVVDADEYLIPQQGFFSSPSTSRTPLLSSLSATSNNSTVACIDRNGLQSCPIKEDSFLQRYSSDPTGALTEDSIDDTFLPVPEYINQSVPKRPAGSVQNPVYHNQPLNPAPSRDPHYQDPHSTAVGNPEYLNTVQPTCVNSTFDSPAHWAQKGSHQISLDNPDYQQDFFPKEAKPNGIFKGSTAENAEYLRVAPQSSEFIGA
Sequence of G protein-coupled receptor kinase 6 (Homo sapiens) (P43250 whole entry, looked up): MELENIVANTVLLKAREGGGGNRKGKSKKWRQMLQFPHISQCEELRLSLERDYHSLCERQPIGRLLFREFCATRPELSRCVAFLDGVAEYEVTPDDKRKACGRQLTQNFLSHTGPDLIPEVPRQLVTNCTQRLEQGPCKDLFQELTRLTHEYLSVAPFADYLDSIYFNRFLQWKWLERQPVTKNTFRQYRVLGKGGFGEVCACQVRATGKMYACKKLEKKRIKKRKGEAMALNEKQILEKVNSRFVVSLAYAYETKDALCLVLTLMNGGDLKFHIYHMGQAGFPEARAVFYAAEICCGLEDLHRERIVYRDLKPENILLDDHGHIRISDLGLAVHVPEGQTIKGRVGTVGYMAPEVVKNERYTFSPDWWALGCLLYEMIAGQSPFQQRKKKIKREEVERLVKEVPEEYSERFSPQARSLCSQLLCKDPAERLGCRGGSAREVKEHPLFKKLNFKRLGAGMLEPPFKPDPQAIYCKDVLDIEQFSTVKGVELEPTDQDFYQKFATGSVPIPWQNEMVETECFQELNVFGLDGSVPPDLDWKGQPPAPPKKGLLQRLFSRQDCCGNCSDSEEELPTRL
Sequence of MAP kinase-activated protein kinase 5 (Homo sapiens) (Q8IW41 whole entry): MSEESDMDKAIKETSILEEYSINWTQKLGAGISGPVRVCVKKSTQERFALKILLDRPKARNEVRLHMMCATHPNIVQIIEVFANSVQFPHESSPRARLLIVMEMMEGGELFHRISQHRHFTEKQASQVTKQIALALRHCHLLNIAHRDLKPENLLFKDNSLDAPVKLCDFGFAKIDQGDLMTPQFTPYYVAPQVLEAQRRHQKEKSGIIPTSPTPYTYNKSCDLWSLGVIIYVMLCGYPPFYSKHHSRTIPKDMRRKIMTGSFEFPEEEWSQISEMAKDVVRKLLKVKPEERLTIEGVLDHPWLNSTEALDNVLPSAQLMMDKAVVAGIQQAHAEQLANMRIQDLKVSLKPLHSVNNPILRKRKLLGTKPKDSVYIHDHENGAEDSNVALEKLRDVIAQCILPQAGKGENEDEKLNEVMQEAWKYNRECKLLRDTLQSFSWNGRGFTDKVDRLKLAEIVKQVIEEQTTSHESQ
Sequence of Rho-associated protein kinase 1 (Homo sapiens) (Q13464 2-1354 limits assumed): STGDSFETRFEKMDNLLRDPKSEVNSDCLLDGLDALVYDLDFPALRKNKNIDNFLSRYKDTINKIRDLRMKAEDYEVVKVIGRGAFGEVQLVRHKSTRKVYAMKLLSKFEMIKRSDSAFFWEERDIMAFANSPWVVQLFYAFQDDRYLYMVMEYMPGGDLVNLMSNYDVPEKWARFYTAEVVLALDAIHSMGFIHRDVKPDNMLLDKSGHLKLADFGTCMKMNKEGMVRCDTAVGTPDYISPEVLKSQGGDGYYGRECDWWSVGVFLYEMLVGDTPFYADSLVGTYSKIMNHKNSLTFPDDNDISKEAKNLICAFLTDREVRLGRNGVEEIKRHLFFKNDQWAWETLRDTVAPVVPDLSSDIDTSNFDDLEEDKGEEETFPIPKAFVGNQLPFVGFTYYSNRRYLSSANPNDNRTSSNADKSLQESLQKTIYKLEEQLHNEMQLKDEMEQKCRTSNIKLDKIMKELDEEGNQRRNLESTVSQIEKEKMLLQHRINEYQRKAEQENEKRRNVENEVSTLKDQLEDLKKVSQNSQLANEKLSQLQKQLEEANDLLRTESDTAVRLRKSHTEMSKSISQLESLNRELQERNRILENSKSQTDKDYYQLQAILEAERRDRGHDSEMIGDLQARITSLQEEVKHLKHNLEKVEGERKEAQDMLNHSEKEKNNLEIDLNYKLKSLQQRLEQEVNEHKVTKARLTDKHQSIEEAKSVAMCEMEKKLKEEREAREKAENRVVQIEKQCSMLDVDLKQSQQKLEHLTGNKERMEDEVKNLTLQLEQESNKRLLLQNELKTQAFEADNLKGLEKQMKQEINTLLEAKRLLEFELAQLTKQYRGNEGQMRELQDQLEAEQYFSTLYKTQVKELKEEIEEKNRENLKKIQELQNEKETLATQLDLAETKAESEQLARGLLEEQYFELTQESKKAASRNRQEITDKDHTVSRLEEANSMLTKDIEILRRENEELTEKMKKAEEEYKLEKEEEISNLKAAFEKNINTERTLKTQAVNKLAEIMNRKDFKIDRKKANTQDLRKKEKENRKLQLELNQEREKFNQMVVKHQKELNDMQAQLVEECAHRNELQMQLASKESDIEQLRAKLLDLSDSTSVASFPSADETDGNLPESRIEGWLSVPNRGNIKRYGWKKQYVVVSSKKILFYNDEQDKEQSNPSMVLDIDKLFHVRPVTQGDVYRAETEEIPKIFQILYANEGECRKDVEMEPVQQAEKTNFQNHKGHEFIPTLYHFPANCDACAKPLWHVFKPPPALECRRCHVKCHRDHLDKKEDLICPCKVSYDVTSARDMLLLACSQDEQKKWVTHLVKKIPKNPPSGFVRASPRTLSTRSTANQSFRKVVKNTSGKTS
Sequence of Fibroblast growth factor receptor 1 (P11362 whole entry): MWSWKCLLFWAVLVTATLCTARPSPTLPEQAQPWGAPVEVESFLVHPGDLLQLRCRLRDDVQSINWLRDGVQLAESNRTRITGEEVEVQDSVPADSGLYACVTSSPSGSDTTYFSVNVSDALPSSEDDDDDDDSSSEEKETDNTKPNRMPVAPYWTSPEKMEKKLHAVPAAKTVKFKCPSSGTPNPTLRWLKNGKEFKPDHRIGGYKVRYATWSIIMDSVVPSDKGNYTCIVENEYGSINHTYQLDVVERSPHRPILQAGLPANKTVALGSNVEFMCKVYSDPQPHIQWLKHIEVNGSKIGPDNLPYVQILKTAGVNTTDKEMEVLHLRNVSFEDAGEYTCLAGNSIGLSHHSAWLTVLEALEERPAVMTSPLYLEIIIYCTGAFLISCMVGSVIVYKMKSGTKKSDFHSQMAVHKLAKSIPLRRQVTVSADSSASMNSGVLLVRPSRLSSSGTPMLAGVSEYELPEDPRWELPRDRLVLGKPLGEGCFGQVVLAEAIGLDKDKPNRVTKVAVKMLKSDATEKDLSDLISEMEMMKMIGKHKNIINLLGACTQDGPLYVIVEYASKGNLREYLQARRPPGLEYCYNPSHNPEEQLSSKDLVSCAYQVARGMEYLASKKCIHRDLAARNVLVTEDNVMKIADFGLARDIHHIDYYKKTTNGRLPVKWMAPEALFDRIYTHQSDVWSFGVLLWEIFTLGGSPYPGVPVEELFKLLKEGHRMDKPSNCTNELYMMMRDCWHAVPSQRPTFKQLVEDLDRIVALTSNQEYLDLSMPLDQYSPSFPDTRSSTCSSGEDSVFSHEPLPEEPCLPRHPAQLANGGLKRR

IC50 [1]: < 1000 nM
IC50 (Protein kinase C (PKC)): < 1000 nM
SMILES: CC(C)(O)C(=O)N1CCN(c2ccc(C(F)(F)F)c(C3=C(c4c[nH]c5ccccc45)C(=O)NC3=O)c2)CC1

IC50 [2]: 0.9 nM
SMILES: Cn1c(=O)n([C@@H]2CC[C@@H](O)c3ccccc32)c2cc(-n3cnc4ccc(C#N)cc43)ccc21

IC50 [2]: 3 nM
IC50 [3]: 1250 nM
IC50 [4]: 2 nM
IC50 [5]: 9400 nM
IC50 [6]: 7800 nM
IC50 [7]: 7400 nM
IC50 [8]: 5600 nM
IC50 [9]: 3100 nM
IC50 [10]: 7100 nM
SMILES: C=CC(=O)Nc1nc2cnc3[nH]ccc3c2n1C

IC50 [2]: 7 nM
SMILES: CN(C)C/C=C/C(=O)Nc1nc2cnc3[nH]ccc3c2n1C

inhibition (Homo sapiens): 67%
SMILES: CC(C)(C)[C@@H](NC(=O)c1c[nH]c2ncc(C3CC3)nc12)C(=O)N1CC(C#N)C1

IC50 [12]: 660 nM
inhibition [13]: 148%
inhibition [14]: Active
inhibition [16]: 65%
inhibition [17]: 100%
inhibition [18]: 100%
inhibition [19]: 142%
inhibition [20]: 100%
inhibition [21]: 100%
inhibition [22]: 100%
inhibition [23]: 145%
inhibition [24]: 133%
inhibition [25]: Active
inhibition [27]: 135%
inhibition [28]: 62%
inhibition [29]: 100%
inhibition [30]: 141%
inhibition [31]: 100%
inhibition [32]: 100%
inhibition [33]: 53%
inhibition [34]: 11%
inhibition [35]: 100%
inhibition [36]: 135%
inhibition [38]: 100%
inhibition [40]: 100%
SMILES: CN(C)C(=O)C(C#N)=Cc1ccc(-c2nc3cnc4[nH]ccc4c3n2C2CCCCC2)o1 (mixture of isomers)
inhibition at 0.3 µM (cells [11]): 100%
inhibition at 0.3 µM (cells [15]): 100%
inhibition (CD4+ve Th [26]): inactive
inhibition (CD4+ve Th [37]): Active
inhibition (CD4+ve Th [39]): inactive

inhibition [41]: 60%
inhibition [42]: 48%
inhibition [43]: 54%
inhibition [44]: 100%
inhibition [45]: 26%
inhibition [46]: 61%
inhibition [47]: 48%
inhibition [48]: 40%
inhibition [49]: 60%
inhibition [50]: 3%
inhibition [51]: 52%
inhibition [52]: 31%
inhibition [53]: 57%
inhibition [54]: 51%
inhibition [55]: 40%
inhibition [34]: 3%
inhibition [56]: 61%
inhibition [57]: 100%
inhibition [58]: 60%
inhibition [59]: 22%
inhibition [60]: 60%
inhibition [61]: 49%
inhibition [62]: 34%
inhibition [63]: 100%
inhibition [64]: 100%
SMILES: CC1CCCCC1n1c(-c2ccc(C=C(C#N)C(=O)N(C)C)o2)nc2cnc3[nH]ccc3c21 (mixture of isomers)
inhibition at 0.3 µM (cells [11]): 100%
inhibition at 0.3 µM (cells [15]): 100%
inhibition (CD4+ve Th [26]): inactive
inhibition (CD4+ve Th [37]): Active
inhibition (CD4+ve Th [39]): inactive
